Test results as given in patent US9968650B2, “Modified viral structural protein with antiviral activity” (priority 2011, dated 2018).
Entries after “also recorded” stand apart in the source; their conditions may differ.

Assays:
HIV-1 NL4-3 = settings: cited from earlier work
HIV-1 CA = HIV-1 CA (Human immunodeficiency virus type 1 group M subtype B, UniProt P12493); settings: cited from earlier work
Gag = Gag (Human immunodeficiency virus type 1 group M subtype B, UniProt P12493); settings: cited from earlier work
HBV capsid assembly [1] = assay: Size exclusion chromatography of equilibrium capsid assembly and calculation of thermodynamic parameters; type: biochemical, Hepatitis B virus (HBV); settings: 100 mM NaCl, 23° C.; for pseudo-critical concentration: 72 h equilibration
Procedure: (§1) The adyw strain of HBV Cp149-pET11c (Genbank accession no. J02202.1) construct was mutated to Cp149-V124W (GTG to TGG) with the QuikChange mutagenesis kit (Stratagene). […] V124W purification was performed as previously described for HBV Cp149-WT purification. Based on the biochemical studies in this paper, in the re-assembly step, using 50 mM NaCl instead of 500 mM NaCl to induce re-assembly yielded more capsid with slightly more aggressive assembly activity. Protein concentration was determined using an extinction coefficient of 70,025 M^−1 cm^−1 per V124W dimer at 280 nm, calculated by ExPASy Proteomics Server based on the protein sequence and assuming one disulfide bond per dimer WT dimer was purified exactly as previously described. The extinction coefficient of WT dimer is 60,900 M^−1 cm^−1 at 280 nm. Before assembly studies, frozen protein stock was dialyzed into 50 mM HEPES, pH 7.5 for at least 2×2 h at 4° C. The standard assembly buffer was 50 mM HEPES, pH 7.5 at 23° C. with varied NaCl concentrations. Protein stock was treated with 1% to 5% β-mercaptoethanol for 20 min before assembly.
WT and V124W at varied concentrations (WT, 40 to 80 μM; V124W, 2.5 to 30 μM), were induced to assemble at 100 mM NaCl to equilibration for 72 h or longer at 23° C. […] Capsid and dimer concentrations in assembly reactions were determined by size exclusion chromatography (SEC) through a 21 ml Superose 6 column. ΔGcontact and KD,apparent were calculated as previously described. KD,apparent was the average of the equilibrium dimer concentrations which were nearly constant.

HBV replication = assay: Southern blot analysis of encapsidated HBV DNA in transfected Huh7 cells; type: cell-based, Hepatitis B virus (HBV); settings: WT normalized to 100%, SD in parenthesis, * values at limit of detection
Source text: (§2) All HBV plasmids used in cell culture experiments were derived from subtype ayw (Genbank accession no. V01460). These plasmids express pgRNA under the control of the cytomegalovirus (CMV) immediate early promoter. […] Plasmids C^WT or C^V124W express core protein but not P or envelope proteins and lack a functional encapsidation signal, GFP protein was expressed from a separate plasmid (provided by Bill Sugden, UW-Madison). Details of construction and sequence of any plasmid will be provided upon request.
The human hepatoma cell line Huh7 was used to study HBV replication. Cells were grown in 60 mm plates at 37° C. in 5% CO2, in DMEM/F12 medium supplemented with 5% FBS (Invitrogen, Grand Island, N.Y.). Cells were approximately 75% confluent or greater at time of transfection. DNA transfections were performed using calcium phosphate precipitation. For experiments using WT^P+C+ and V124W^P+C+, 5 μg of total plasmid mass was transfected. Each transfection experiments were repeated three times independently. For V124W titration experiment, 2 μg WT^P+C+ and varied C^V124W (0 to 8 μg) were used. A filler plasmid pCMV-Sport6 was used to keep the total plasmid mass at 10 μg. 0.125 μg of the GFP expression plasmid was used in every transfection. Typically, medium containing the calcium phosphate precipitate was removed after 16 hours, fresh medium added, and the cultures were grown for an additional 96 hours.
Nucleic acid from cytoplasmic capsids was isolated as described previously. Briefly, cells were lysed in a solution containing 50 mM Tris, 1 mM EDTA, 0.2% NP40, pH 8.0. Nuclei were pelleted via centrifugation and supernatant was collected. A fraction of this lysate was used for detection of core protein and GFP. The remainder of the cytoplasmic lysate was treated with 45 units of micrococcal nuclease (Worthington Biochemicals, Lakewood, N.J.) in the presence of 2 mM CaCl2 to digest plasmid DNA and unencapsidated pgRNA, followed by treatment with 0.4% SDS and 0.4 mg/ml Pronase® (Roche, Nutley, N.J.) to digest nucleocapsids and P protein. Encapsidated nucleic acids were extracted with 1:1 phenokchloroform, precipitated with ethanol and NaCl, and re-suspended in 30 μl of a solution of 10 mM Tris, 0.1 mM EDTA, pH 8.0.
An aliquot of viral DNA was electrophoresed through a 1.25% agarose gel. DNA was denatured and neutralized in situ in 0.5 N NaOH/1.5 M NaCl and 1 M Tris/1.5 M NaCl, respectively, followed by passive transfer to Hybond-N (GE® Lifesciences, Piscataway, N.J.) in 10×SSC. Viral DNA was detected on the membrane using an equimolar pool of oligonucleotides that detected (−) DNA. […] Levels of DNA were measured using the software ImageQuant® 5.2 (Molecular Dynamics). DNA levels were normalized to GFP levels as determined previously by western blot. […]

HBV capsid assembly [2] = target: T1, HBV capsid assembly (Hepatitis B virus genotype D subtype adw, UniProt P03147); assay: Extent of core protein assembly without HAP12 by size exclusion chromatography; type: biochemical
T1 construct: (Cp149), which is the N-terminal first 149 residues of the core protein; made in house; host or cells: E. coli BL21 (DE3) (printed for V124W; WT 'as previously described')
T1 sequence (P03147 1-149): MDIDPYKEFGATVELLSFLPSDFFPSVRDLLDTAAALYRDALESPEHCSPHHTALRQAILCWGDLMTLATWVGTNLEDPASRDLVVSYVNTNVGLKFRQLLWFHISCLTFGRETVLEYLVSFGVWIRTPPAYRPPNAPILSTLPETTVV
Procedure: as §1
(§3) To test for resistance to HAP molecules, 10 μM protein with varied HAP12 concentrations (2.5 to 60 μM) was induced to assemble at 50 mM NaCl. Before adding 10× NaCl, protein was incubated with HAP12 at 23° C. for 20 min. Each reaction was incubated at 23° C. for 24 h to equilibrate. Under these conditions, 24 h was long enough to allow reactions to reach equilibrium. Capsid, abnormal structures and dimer concentrations were determined by SEC as described above.

HBV capsid assembly [3] = assay: as above; type: biochemical, Hepatitis B virus (HBV); settings: 10 μM protein, 50 mM NaCl, 23° C., without HAP12
Procedure: as §1, §3

HBV capsid assembly [4] = assay: 90° light scattering assembly kinetics of core protein alone; type: biochemical, Hepatitis B virus (HBV); settings: 10 μM protein, 50 mM NaCl, first 800 seconds
Procedure: Light scattering was monitored at 90° using 400 inn excitation and emission wavelength with a Photon Technology International fluorometer for at least 800 seconds at 23° C. 10 μM protein (WT or V124W) was incubated with or without 20 μM HAP12 for 20 min prior to adding equal volume of 2× NaCl to a final concentration of 50 mM NaCl. Each sample was repeated 3-4 times independently.
90° Light scattering is a well-established method to monitor the virus assembly kinetics because of the significant difference between the size of the capsid and the dimer. HBV core protein assembly is induced by increasing the ionic strength in vitro, which is achieved by adding NaCl to the reaction system. Higher ionic strength leads to assembly faster and further due to the stronger association energy between dimers.

Cp149 dimer interface = target: T2, Cp149 dimer interface (Hepatitis B virus genotype D subtype adw, UniProt P03147); settings: cited from earlier work
T2 construct: (Cp149), which is the N-terminal first 149 residues of the core protein
T2 sequence (P03147 1-149): as above

core protein = assay: Western blot analysis of core protein level in transfected Huh7 cells; type: cell-based, Hepatitis B virus (HBV); settings: normalized to GFP, WT = 100%, SD in parenthesis
Source text: as §2
The human hepatoma cell line Huh7 was used to study HBV replication. Cells were grown in 60 mm plates at 37° C. in 5% CO2, in DMEM/F12 medium supplemented with 5% FBS (Invitrogen, Grand Island, N.Y.). […]
A fraction of cytoplasmic lysate was used to run a 15% SDS-PAGE, followed by transfer of proteins to PVDF-FL (Millipore®, Billerica, Mass.) in methanol transfer buffer (details of SDS-PAGE and transfer solutions provided upon request). […] Core protein was detected using a rabbit α-core antibody (Austral Biologicals®, San Ramon, Calif.) at a dilution of 1:500, and a goat α-rabbit IRDye800CW antibody (Li-Cor®) at a dilution of 1:10,000. GFP was detected using a mouse α-GFP antibody (Santa Cruz® Biotechnology, San Cruz, Calif.) at a dilution of 1:500, and a goat α-mouse IRDye680LT antibody (Li-Cor®) at a dilution of 1:10,000. […] Core levels were normalized to GFP levels for quantitation. […]

For `Cc1[nH]c2ccccc2c1CC(=O)N[C@@H](Cc1ccccc1)C(=O)N(C)c1ccccc1` [PF-3450074], which “antiviral activity against HIV” value (HIV-1 NL4-3) is on record?
Its value is “inhibit HIV replication”.

What about the “rate of CA multimerization” value (HIV-1 CA) of the same compound?
Its value is “significant increase”.

What about the Gag association (Gag) of the same compound?
The Gag association was “does not inhibit”.

Which results are given for “WT: wild type HBV core protein; Cp149 is the N-terminal 149-residue assembly domain, used as control”?
ΔGcontact (HBV capsid assembly [1]): -2.74 ± 0.04 kcal/mol; pseudo-critical concentration (HBV capsid assembly [1]): about 43 μM; pseudo-critical concentration (HBV capsid assembly [1]; listed as wild type Cp149): 43.6 ± 5.1 µM; ΔGcontact (HBV capsid assembly [1]; listed as wild type Cp149): -2.74 ± 0.04 kcal/mol; Kd (HBV capsid assembly [1]; read-out: KD, apparent): 43.3 ± 4.97 µM; dlDNA (HBV replication): 100% (27%); ssDNA (HBV replication): 100% (19%); total DNA (HBV replication): 100% (19%); rcDNA (HBV replication; three independent transfections): 100% (46%); capsid formation at 150 mM NaCl (HBV capsid assembly [2]; 10 μM protein, 150 mM NaCl (data not shown)): did not observe any capsid formation; concentration needed to see any assembly (HBV capsid assembly [2]; under similar conditions (NaCl-induced assembly, FIG. 10)): 45 µM; extent of assembly (dimers assembled into capsids) (HBV capsid assembly [3]): no assembly; extent of assembly (dimers assembled into capsids) (HBV capsid assembly [3]; listed as wild type Cp149): does not assemble at all; also recorded: no assembly; assembly kinetics without HAP12 (in words) (HBV capsid assembly [4]): did not assemble; association energy at the dimer interface (Cp149 dimer interface; 150 mM NaCl 37° C., without HAP): -3.87 kcal/mol; core protein (core protein): 100% (39%)

Which “HAP stoichiometry necessary to generate aberrant structures” value (Cp149 dimer interface; pure BAY41-4109) does the source give for `COC(=O)C1=C(C)NC(c2ncc(F)cc2F)=N[C@H]1c1ccc(F)cc1Cl` [BAY41-4109] here?
Its value is “greater than one HAP per two dimers”.
